The test system of assay [1] is T1, Anc357 (synthetic construct).
T1 construct: pET28a, E. coli; N-terminal His6 tag removed by TEV; 37,413 Da expected after cleavage; monomer
The experiment in a line: anaerobic UV-visible difference spectroscopy (MLCT). It is filed as binding. Particulars: Fe(II).

The next assay has as its target T2, PaIPNS (Pseudomonas aeruginosa, UniProt Q9HWJ0).
T2 construct: gene PA4191; synthetic codon-optimised gene in pET28a, E. coli; N-terminal His6 tag removed by TEV; EDTA-treated apoprotein reconstituted with Fe(II)
T2 sequence (Q9HWJ0 1-334): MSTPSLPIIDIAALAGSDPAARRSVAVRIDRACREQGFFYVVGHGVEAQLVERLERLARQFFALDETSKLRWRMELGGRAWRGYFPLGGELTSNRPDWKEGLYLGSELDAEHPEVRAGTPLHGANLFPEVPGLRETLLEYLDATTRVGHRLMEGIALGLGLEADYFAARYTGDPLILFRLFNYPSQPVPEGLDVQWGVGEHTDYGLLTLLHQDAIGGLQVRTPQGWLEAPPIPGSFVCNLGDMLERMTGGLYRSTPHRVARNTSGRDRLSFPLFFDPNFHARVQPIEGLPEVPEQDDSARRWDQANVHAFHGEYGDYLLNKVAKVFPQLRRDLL
The description is as above. It is filed as binding. Conditions: Fe(II) 1 mM, dithionite 2 mM, 25 mM HEPES pH 7.5.

The next assay deals with T3, Din11 (Arabidopsis thaliana, UniProt Q8H113).
T3 construct: gene 2ODDC23.2; synthetic codon-optimised gene in pET28a, E. coli; N-terminal His6 tag, removed by TEV; Fe(II) added
T3 sequence (Q8H113 1-357): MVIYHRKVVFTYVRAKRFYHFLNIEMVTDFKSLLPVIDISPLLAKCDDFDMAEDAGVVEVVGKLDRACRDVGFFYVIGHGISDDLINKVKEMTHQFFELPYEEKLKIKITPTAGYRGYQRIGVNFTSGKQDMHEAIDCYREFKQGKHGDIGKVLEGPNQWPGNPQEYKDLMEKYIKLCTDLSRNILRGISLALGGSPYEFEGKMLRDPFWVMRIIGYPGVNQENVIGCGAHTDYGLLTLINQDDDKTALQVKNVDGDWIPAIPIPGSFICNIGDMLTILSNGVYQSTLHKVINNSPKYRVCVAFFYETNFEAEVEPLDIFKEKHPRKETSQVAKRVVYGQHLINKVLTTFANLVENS
The experiment in a line: P5C formation, colorimetric assay. It is filed as biochemical. Conditions: 2OG 6.67 mM, L-Arg 6.67 mM, Fe(II) 0.4 mM, ascorbate 0.8 mM, HEPES pH 7.5, room temperature.

Turning to `O=C(O)CCC(=O)C(=O)O` [2OG], the entries for the “anaerobic UV-visible difference spectroscopy (MLCT)” value (in assay [1]; at PaIPNS) were “consistent with 2OG binding (Figure S6)” and “The PaIPNS spectra clearly demonstrated that PaIPNS binds 2OG”, respectively.
On to `N=C(N)NCCC[C@H](N)C(=O)O` [L-Arg], for which, at Din11, the “P5C formation, colorimetric assay” value is recorded as “this enzyme hydroxylated L-Arg to produce P5C”.

These data come from PMC12329707, “Ancestral Sequence Reconstruction of the Ethylene-Forming Enzyme” (Biochemistry, 2025).
